US12139498B1, “Positive allosteric modulators of the muscarinic acetylcholine receptor M4” (Vanderbilt University, priority 2023, dated 2024)
pIC50: −log10 of the molar value.

How the values were obtained:
human muscarinic 2 = molecular target: T1, human muscarinic 2 (Homo sapiens, UniProt P08172); assay: Eurofins LeadProfilingScreen, human muscarinic 2 (binding); conditions: 10 μM (binding)
T1 sequence (P08172 1-466): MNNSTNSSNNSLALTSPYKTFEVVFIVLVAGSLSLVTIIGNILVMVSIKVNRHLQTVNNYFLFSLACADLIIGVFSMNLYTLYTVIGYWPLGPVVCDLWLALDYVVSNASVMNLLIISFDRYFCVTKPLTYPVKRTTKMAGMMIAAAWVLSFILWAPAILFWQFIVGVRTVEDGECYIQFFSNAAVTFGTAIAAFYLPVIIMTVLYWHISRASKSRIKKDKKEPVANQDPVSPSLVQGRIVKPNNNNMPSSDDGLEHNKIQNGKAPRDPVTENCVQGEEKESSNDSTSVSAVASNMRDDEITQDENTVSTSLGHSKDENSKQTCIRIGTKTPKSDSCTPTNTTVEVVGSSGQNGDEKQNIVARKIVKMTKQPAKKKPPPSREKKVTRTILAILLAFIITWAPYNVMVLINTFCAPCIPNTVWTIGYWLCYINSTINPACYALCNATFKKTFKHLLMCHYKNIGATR
Description: (§1) Compound 70 was tested using Eurofins LeadProfilingScreen®, which detects potential off-target activity and determines relative selectivity. The screen includes 68 primary molecular targets, including several CNS targets recommended by the EMEA (European Medicines Evaluation Agency) to evaluate drug dependence potential.

[1] = In vivo pharmacokinetics in cynomolgus monkey; conditions: plasma
Description: (§2) Compound 70 was tested in several in vivo assays and the pharmacokinetic parameters listed in the following table may be determined from pharmacokinetic studies in rat, dog, or cynomolgus monkey, according to known methods as generally described in the following references: Garrison et al. J. Med. Chem. 2022, 65, 6273-6286; Felts et al. J. Med. Chem 2017, 60, 5072-5085; and Yu et al. J. Med. Chem. 2021, 64, 4709-4729.

[2] = In vivo pharmacokinetics in rat
Description: as §2

male Sprague-Dawley rats = assay: Amphetamine-induced hyperlocomotion in rats; conditions: 100 mg/kg i.p., amphetamine 0.25 mg/kg s.c., p<0.001
Dog intrinsic clearance = type: in vitro ADME
Description: (§3) Compound 70 was tested in several in in vitro assays to investigate both metabolism and pharmacokinetics. These assays may be performed according to known methods as generally described in the following references: Conde-Ceide et al. ACS Med. Chem. Lett. 2015, 6, 716-720; Morris et al. J. Med. Chem. 2014, 57, 10192-10197; and Bubser et al. ACS Chem. Neurosci. 2014, 5, 920-942.

[3] = Fraction unbound in dog plasma; type: in vitro ADME; conditions: read-out: Dog Fu (plasma)
Description: as §3

[4] = Fraction unbound in human plasma; type: in vitro ADME; conditions: read-out: Human Fu (plasma)
Description: as §3

[5] = test system: 68 primary molecular targets; assay: Eurofins LeadProfilingScreen off-target panel (binding); conditions: 10 μM (binding), all targets except human muscarinic 2
Description: as §1

[6] = Human intrinsic clearance; type: in vitro ADME
Description: as §3

P450 1A2 = molecular target: T2, P450 1A2 (Homo sapiens, UniProt P05177); assay: P450 1A2 inhibition; type: in vitro ADME
T2 sequence (P05177 1-516): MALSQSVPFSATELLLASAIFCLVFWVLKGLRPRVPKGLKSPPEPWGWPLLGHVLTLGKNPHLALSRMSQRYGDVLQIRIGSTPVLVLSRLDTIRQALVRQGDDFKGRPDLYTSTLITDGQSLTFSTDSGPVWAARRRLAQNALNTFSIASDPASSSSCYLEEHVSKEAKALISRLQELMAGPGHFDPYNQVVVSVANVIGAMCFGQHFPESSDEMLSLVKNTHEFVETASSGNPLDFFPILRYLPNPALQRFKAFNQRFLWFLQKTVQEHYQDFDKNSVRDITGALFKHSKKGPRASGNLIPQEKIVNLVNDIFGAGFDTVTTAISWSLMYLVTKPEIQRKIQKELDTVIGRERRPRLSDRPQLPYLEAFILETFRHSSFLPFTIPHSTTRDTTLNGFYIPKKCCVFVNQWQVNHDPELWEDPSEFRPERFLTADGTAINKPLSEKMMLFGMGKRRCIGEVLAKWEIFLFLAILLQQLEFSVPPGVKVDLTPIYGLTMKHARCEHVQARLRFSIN
Description: as §3

## Cc1c(N2CCc3nc(C4(F)CC4)sc3C2)nc2nn(C)c(=O)n2c1C [Compound 70, 7-(2-(1-fluorocyclopropyl)-6,7-dihydrothiazolo[5,4-c]pyridin-5(4H)-yl)-2,5,6-trimethyl-[1,2,4]triazolo[4,3-a]pyrimidin-3(2H)-one]
Human muscarinic 2
  inhibition at 10 µM: 58%
[1]; read-out: Cyno CLp
  clearance: 4.9 mL/min/kg
[1]; read-out: Cyno Elim. t1/2 (converted)
  half-life: 4.2 h
[1]; read-out: Cyno Vss
  Vd: 1.4 L/kg
[2]; brain / plasma
  Kp: 1.4
[2]; brain / plasma, unbound
  Kp uu: 0.3
[2]; oral 3 mg/kg
  Rat oral F (3 mg/kg): >100%
[2]; plasma, read-out: Rat CLp
  clearance: 4.3 mL/min/kg
[2]; plasma, read-out: Rat Elim. t1/2 (converted)
  half-life: 3.1 h
[2]; plasma, read-out: Rat Vss
  Vd: 0.7 L/kg
Male Sprague-Dawley rats
  percent reversal of amphetamine-induced hyperlocomotion: 61.1%
Dog intrinsic clearance
  CLint scaled: 17 mL/min/kg
[3]
  fraction unbound: 0.232
[4]
  fraction unbound: 0.217
[5]
  inhibition of each target in the LeadProfilingScreen: < 50%
[6]
  CLint scaled: 9 mL/min/kg
P450 1A2
  pIC50: < 4.52
